We go through one molecule from US12077636B2 (NISSAN CHEMICAL CORPORATION, priority 2013, dated 2024).

A short description of this data set: Dissolution rate into the solvent. It is filed as physicochemical. Particulars: compared with α-type:β-type in a range of 98:2 to 85:15.

In the case of `O=c1n(CC2CO2)c(=O)n(CC2CO2)c(=O)n1CC1CO1` (stereo not shown) [Tris-(2,3-epoxypropyl)-isocyanurate], the “dissolution rate for dissolution into the solvent” value is listed as “slower”.
